Data set [1] addresses T1, folate binding proteins (FBP) (Bos taurus, UniProt P02702).
T1 construct: purchased SIGMA
In words: SPR measurement of association with immobilized folate binding protein (FBP). As to conditions: each at 1.0×10^−6 M, 25.0° C. How it is done: Specifically, the ligand (e.g., folate-binding proteins) is immobilized on a cuvette, and the analyte (e.g., the cyclodextrin (CD) compound of the invention) that is dissolved in a buffer solution is injected into the above cuvette. Evanescent wave and surface plasmon wave excite the surface plasmon when the angle of incidence on a prism is […] the angle of total reflection. The angle of incidence is measured. The angle of incidence is changed depending on the mass within the evanescent field depth of 600 nm. The amount of the changes can be observed and refers to the response (R). This angle of incidence is proportional to the mass of the adsorbed molecule. In other words, these mass changes can indicate the interaction. The reagents used for immobilization were obtained as follows: • 1 mM BS^3 solution: 2.9 mg of Bis(sulfosuccinimidyl) suberate (BS^3) was dissolved into 5 ml of 10 mM phosphate buffer solution (pH 7.2); • a solution used for immobilization of FBP: 1 mg of FBP (manufactured by SIGMA) was dissolved into 1 ml of 10 mM phosphate buffer solution (pH 7.2). […] A saturation curve shown in FIG. 1 was obtained (measured at a temperature of 25.0° C.). […] The association characteristics of each compound that bound to FBP were evaluated.
(In general: SPR reads the build-up and loss of mass on a sensor chip optically.)

Another data set has as its system Caco-2 tumor cells. In words: SPR measurement of interaction with immobilized Caco-2 tumor cells. As to conditions: SPR linear plot, varied concentrations, Caco-2 cells-immobilized cuvette. It counts as binding, human. How it is done:
The SPR measurements of the exemplary compound 1 that bound to human colon cancer-derived Caco-2 cells and, as comparative target cells, normal rat liver cells were conducted by using the similar foregoing procedures. Each interaction was evaluated comparatively.
Experiment 6-1: The SPR measurements of the interaction with Caco-2 tumor cells The immobilization of Caco-2 cells was performed by the procedures similar to those of Example 5 <Immobilization of FBP>. Instead of using the solution that was used for the immobilization of FBP, the solution containing a suitable amount and concentration of the solution (phosphate buffer solution (pH 7.3)+0.85% NaCl) (manufactured by CORNING) containing Caco-2 cells was used as a fixative. In addition, to the Caco-2 cells-immobilized cuvette was added 200 μl of the exemplary compound 1 ([…]) that was dissolved in the phosphate buffer solution (pH 7.3)+0.85% NaCl. The SPR measurements were then carried out.
Experiment 7-1: The measurements of the interaction with Caco-2 tumor cells The immobilization of Caco-2 cells was performed by the procedures similar to those of Example 5 <Immobilization of FBP>. […]

Data set [2] can be described thus: SPR measurement of drug-inclusion association with immobilized DXR. The note with it: SPR linear plot, DXR-immobilized cuvette. In kind it is binding. How it is done:
The capabilities of the CD compound of the invention were evaluated by the procedures similar to those of Experiment 7-1. An anticancer and antibiotic agent, doxorubicin (hereafter, referred to as “DXR”) was used as a drug.
Immobilization of DXR on the surface of an optical biosensor cuvette was performed by using the procedures similar to those of the above immobilization of FBP. A buffer with a different pH was used as a solvent for drugs.
An aminosilane group on the surface of the cuvette was reacted with a linker. 1 mM of the BS^3 solution/10 mM of phosphate buffer solution (pH 6.5) was used for the reaction. Then, an amino group of DXR was reacted with the other side of BS^3 linker. The steps were repeated one or more times until the response value became constant. An acetic anhydride-acetic acid solution (volume ratio 1:1) was injected into the cuvette to deactivate any remaining aminosilane groups and to block these. After the blocking, the solution was replaced by 10 mM acetic buffer (pH 5.3). The DXR solution (2 mg DXR/10 mM acetic buffer (pH5.3)) was added thereto. The reaction was carried out. […]
The kinetic behavior of the interaction of the exemplary compound 1 with DXR was measured by the procedures similar to those of Experiment 1. […]

The target of data set [3] is folate receptor protein (FBP) overexpressed on the surface of cancer cells (Homo sapiens, UniProt P15328). The note with it: from reviews (Wang and Low 1998; Low et al. 2008); cited from earlier work.
folate receptor protein (FBP) overexpressed on the surface of cancer cells, sequence (P15328 25-234): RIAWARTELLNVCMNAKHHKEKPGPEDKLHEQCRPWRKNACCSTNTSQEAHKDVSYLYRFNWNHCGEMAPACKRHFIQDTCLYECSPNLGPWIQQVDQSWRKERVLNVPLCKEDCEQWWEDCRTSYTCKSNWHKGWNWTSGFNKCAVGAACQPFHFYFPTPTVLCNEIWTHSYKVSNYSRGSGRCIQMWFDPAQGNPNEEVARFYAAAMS

T1 sequence (P02702 20-234): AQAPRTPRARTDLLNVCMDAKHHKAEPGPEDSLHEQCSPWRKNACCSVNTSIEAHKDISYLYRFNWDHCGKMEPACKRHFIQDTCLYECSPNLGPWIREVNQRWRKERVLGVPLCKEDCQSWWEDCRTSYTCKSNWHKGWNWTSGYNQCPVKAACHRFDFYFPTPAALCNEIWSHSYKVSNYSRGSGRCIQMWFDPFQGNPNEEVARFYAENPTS

With `OC[C@H]1O[C@@H]2O[C@H]3[C@H](O)[C@@H](O)[C@@H](O[C@H]4[C@H](O)[C@@H](O)[C@@H](O[C@H]5[C@H](O)[C@@H](O)[C@@H](O[C@H]6[C@H](O)[C@@H](O)[C@@H](O[C@H]7[C@H](O)[C@@H](O)[C@@H](O[C@H]8[C@H](O)[C@@H](O)[C@@H](O[C@H]1[C@H](O)[C@H]2O)O[C@@H]8CO)O[C@@H]7CO)O[C@@H]6CO)O[C@@H]5CO)O[C@@H]4CO)O[C@@H]3CO` [unmodified β-CD, β-cyclodextrin], the “Interaction with FBP (SPR response, FIG. 1)” value in data set [1] is “did not exhibit any interaction properties”.
In the case of `CNC(=O)CCC(NC(=O)c1ccc(NCc2cnc3nc(N)[nH]c(=O)c3n2)cc1)C(=O)O` (stereo not shown) [Comparative Compound 3], in the data set on Caco-2 tumor cells, the “Association constant Ka (receptor Caco-2)” value was determined as 18000 M⁻¹. Also, in data set [2], the “Association constant Ka (drug DXR)” value came to 2500 M⁻¹.
Consider `Nc1nc2ncc(CNc3ccc(C(=O)N[C@@H](CCC(=O)O)C(=O)O)cc3)nc2c(=O)[nH]1` [folic acid], for which the “Association constant for folate receptor protein (FBP)” value in data set [3] is given as 10^10 M^−1.

The values above are taken from patent US8222400B2, “Cyclodextrin compound modified with folic acid, process for production thereof, drug delivery agent for targeting drug delivery system, pharmaceutical composition, and imaging agent” (Nanodex Inc., priority 2007, dated 2012).
